According to US6790867B2, “Compositions and method for treating infection in cattle and swine” (Schering-Plough Animal Health Corporation, priority 2002, dated 2004):

Assay: in vivo
Design: species or system cattle
Conditions: both sexes, bovine, 2.2 mg/kg
Method: In a second study, the pharmacokinetic profile of the second active component in Formulation 1A, flunixin, was examined. The pharmacokinetic profile of flunixin was evaluated following administration to cattle as the approved single entity flunixin meglumine product, […], and as the combination product Formulation 1A. This study was conducted in four phases using six cattle (3 males, 3 females). All animals received […] intravenously (IV) in the first phase. This was followed, after a washout period, by the administration of […] intramuscularly (IM) to 3 cows and […] subcutaneously (SQ) to 3 cows. In the next phase the animals were crossed over and received […] or SQ. In the final phase, all six cattle received the flunixin/florfenicol combination product (Formulation 1A). All animals received flunixin at a dose of 2.2 mg/kg, regardless of the formulation or route of administration. Blood samples for determination of flunixin concentration were collected at 0, 0.17, 0.5, 0.75, 1, 2, 3, 4, 6, 8, 12 and 24 hours after dosing. At the final phase of the study, the 6 cattle were given Formulation 1A at a dose of 10 mL per 75 kg SQ (equivalent to 40 mg/kg of florfenicol and 2.2 mg/kg of flunixin). The kinetics of flunixin when administered as Formulation 1A are different from the kinetics of flunixin when administered as […]. As such, the clinical dose response of Formulation 1A were ascertained in a subsequent study (described below).

Cc1c(Nc2ncccc2C(=O)O)cccc1C(F)(F)F [Flunixin, flunixin meglumine]
AUC(0-inf) (im): 10500 ng·h/mL | Cmax (im): 3240 ng/mL | Tmax (im): 30.6 min | AUC(0-inf) (iv): 13600 ng·h/mL | AUC(0-inf) (sc): 10900 ng·h/mL | Cmax (sc): 2860 ng/mL | Tmax (sc): 32.4 min
